Reference: patent US6290993A, “Compositions containing mimosa phenolic compounds” (E-L Management Corp., priority 1999, dated 2001)

System: Normal human dermal fibroblasts
Assay: Collagen-increasing activity, ELISA for collagen type 1 or procollagen type 1
Assay type: cell-based
Details: 5 ng/ml, positive control, 4 days incubation
Procedure: Normal human dermal fibroblasts are seeded and grown to confluence in a 96-well plate prior to being treated with M. pudica extract or fractions thereof, prepared by solvent/solvent extractions (heptane/70% ethanol, ethyl acetate/water) at various concentrations in complete medium. Media alone serves as negative control and TGF-β serves as positive control. The plates are incubated for 4 days at 37° C./5% CO2 before the supernatants are harvested and stored at -70° C. until an ELISA is performed. Antibodies to collagen type 1 or procollagen type 1 are used for ELISA analysis to determine collagen levels.

Substance: TGF-β
- increase in collagen levels: 46%
